Measured values: the NIST ThermoML archive (doi:10.1016/j.jct.2016.10.023)
± gives the expanded uncertainty stated by the source.

Experiment: xn = mol fraction of the nth substance listed
Conditions: Constant-volume piezometry

CCCCC [pentane] + CCCO
mass density [kg/m3]
Conditions | Fluid (supercritical or subcritical phases) | Gas
518.15 K, 4877 kPa, x1 = 0.2 | 220.15 ± 1.8 | –
518.15 K, 4965 kPa, x1 = 0.2 | 259.26 ± 1.9 | –
518.15 K, 4994 kPa, x1 = 0.2 | 272.43 ± 1.9 | –
518.15 K, 5010 kPa, x1 = 0.2 | 290.61 ± 2.1 | –
523.15 K, 954 kPa, x1 = 0.5 | – | 15.52 ± 0.05
523.15 K, 1314 kPa, x1 = 0.8 | – | 22.52 ± 0.07
523.15 K, 1549 kPa, x1 = 0.2 | – | 24.93 ± 0.08
523.15 K, 1732 kPa, x1 = 0.5 | – | 29.98 ± 0.09
523.15 K, 1978 kPa, x1 = 0.8 | – | 36.69 ± 0.11
523.15 K, 2284 kPa, x1 = 0.5 | – | 40.49 ± 0.12
523.15 K, 2704 kPa, x1 = 0.5 | – | 51.09 ± 0.16
523.15 K, 2890 kPa, x1 = 0.8 | – | 58.41 ± 0.18
523.15 K, 3111 kPa, x1 = 0.2 | – | 53.01 ± 0.17
523.15 K, 3416 kPa, x1 = 0.5 | – | 67.52 ± 0.21
523.15 K, 3421 kPa, x1 = 0.8 | – | 73.79 ± 0.23
523.15 K, 3614 kPa, x1 = 0.5 | – | 72.6 ± 0.23
523.15 K, 3631 kPa, x1 = 0.9 | 83.38 ± 0.42 | –
523.15 K, 4037 kPa, x1 = 0.2 | – | 91.41 ± 0.29
523.15 K, 4041 kPa, x1 = 0.5 | – | 88.91 ± 0.28
523.15 K, 4261 kPa, x1 = 0.5 | – | 95.85 ± 0.3
523.15 K, 4356 kPa, x1 = 0.8 | 106.4 ± 0.54 | –
523.15 K, 4459 kPa, x1 = 0.2 | 114.35 ± 0.68 | 114.35 ± 0.39
523.15 K, 4600 kPa, x1 = 0.9 | 123.35 ± 0.63 | –
523.15 K, 4817 kPa, x1 = 0.9 | 134.12 ± 0.69 | –
523.15 K, 4864 kPa, x1 = 0.2 | 150.34 ± 0.83 | –
523.15 K, 4871 kPa, x1 = 0.5 | 121.89 ± 0.63 | –
523.15 K, 5043 kPa, x1 = 0.2 | 175.61 ± 1.1 | –
523.15 K, 5108 kPa, x1 = 0.2 | 189.64 ± 1.1 | –
523.15 K, 5158 kPa, x1 = 0.8 | 140.3 ± 0.72 | –
523.15 K, 5206 kPa, x1 = 0.5 | 144.11 ± 0.75 | –
523.15 K, 5208 kPa, x1 = 0.2 | 220.1 ± 1.2 | –
523.15 K, 5292 kPa, x1 = 0.2 | 245.47 ± 1.3 | –
523.15 K, 5316 kPa, x1 = 0.9 | 163.95 ± 0.84 | –
523.15 K, 5328 kPa, x1 = 0.2 | 259.2 ± 1.4 | –
523.15 K, 5343 kPa, x1 = 0.2 | 262.9 ± 1.4 | –
523.15 K, 5359 kPa, x1 = 0.5 | 154.49 ± 0.8 | –
523.15 K, 5364 kPa, x1 = 0.2 | 272.36 ± 1.4 | –
523.15 K, 5370 kPa, x1 = 0.8 | 156.04 ± 0.8 | –
523.15 K, 5423 kPa, x1 = 0.2 | 290.54 ± 1.6 | –
523.15 K, 5483 kPa, x1 = 0.2 | 306.83 ± 1.6 | –
523.15 K, 5508 kPa, x1 = 0.2 | 311.06 ± 1.6 | –
523.15 K, 5518 kPa, x1 = 0.5 | 165.14 ± 0.88 | –
523.15 K, 5551 kPa, x1 = 0.2 | 318.77 ± 1.7 | –
523.15 K, 5586 kPa, x1 = 0.8 | 169.78 ± 0.87 | –
523.15 K, 5668 kPa, x1 = 0.8 | 176.03 ± 0.92 | –
523.15 K, 5707 kPa, x1 = 0.2 | 341.26 ± 1.8 | –
523.15 K, 5707 kPa, x1 = 0.5 | 182.85 ± 0.94 | –
523.15 K, 5717 kPa, x1 = 0.9 | 189.45 ± 0.97 | –
523.15 K, 5731 kPa, x1 = 0.2 | 344.05 ± 1.8 | –
523.15 K, 5763 kPa, x1 = 0.8 | 180.83 ± 0.92 | –
523.15 K, 5911 kPa, x1 = 0.9 | 202.38 ± 1 | –
523.15 K, 5913 kPa, x1 = 0.5 | 200.39 ± 1 | –
523.15 K, 5925 kPa, x1 = 0.8 | 193.16 ± 0.99 | –
523.15 K, 6011 kPa, x1 = 0.5 | 210.22 ± 1.4 | –
523.15 K, 6117 kPa, x1 = 0.5 | 224.05 ± 1.5 | –
523.15 K, 6195 kPa, x1 = 0.9 | 220.68 ± 1.1 | –
523.15 K, 6235 kPa, x1 = 0.5 | 241.5 ± 1.3 | –
523.15 K, 6236 kPa, x1 = 0.8 | 213.85 ± 1.1 | –
523.15 K, 6242 kPa, x1 = 0.2 | 378.64 ± 1.9 | –
523.15 K, 6294 kPa, x1 = 0.5 | 250.69 ± 1.4 | –
523.15 K, 6320 kPa, x1 = 0.8 | 219.62 ± 1.1 | –
523.15 K, 6339 kPa, x1 = 0.2 | 383.45 ± 1.9 | –
523.15 K, 6353 kPa, x1 = 0.5 | 259.74 ± 1.3 | –
523.15 K, 6399 kPa, x1 = 0.9 | 233.06 ± 1.2 | –
523.15 K, 6454 kPa, x1 = 0.9 | 236.53 ± 1.2 | –
523.15 K, 6480 kPa, x1 = 0.5 | 270.56 ± 1.4 | –
523.15 K, 6513 kPa, x1 = 0.9 | 240.93 ± 1.2 | –
523.15 K, 6560 kPa, x1 = 0.2 | 391.28 ± 2 | –
523.15 K, 6567 kPa, x1 = 0.9 | 244.24 ± 1.2 | –
523.15 K, 6580 kPa, x1 = 0.8 | 234.7 ± 1.2 | –
523.15 K, 6628 kPa, x1 = 0.5 | 282.38 ± 1.4 | –
523.15 K, 6748 kPa, x1 = 0.8 | 245.34 ± 1.2 | –
523.15 K, 6923 kPa, x1 = 0.5 | 298.67 ± 1.5 | –
523.15 K, 6963 kPa, x1 = 0.8 | 258.57 ± 1.3 | –
523.15 K, 7242 kPa, x1 = 0.8 | 272.53 ± 1.4 | –
523.15 K, 7295 kPa, x1 = 0.9 | 282.01 ± 1.4 | –
523.15 K, 7431 kPa, x1 = 0.5 | 320 ± 1.8 | –
523.15 K, 7549 kPa, x1 = 0.5 | 325.27 ± 1.8 | –
523.15 K, 7577 kPa, x1 = 0.2 | 418.71 ± 2.1 | –
523.15 K, 7600 kPa, x1 = 0.8 | 288.38 ± 1.5 | –
523.15 K, 7736 kPa, x1 = 0.9 | 301.69 ± 1.5 | –
523.15 K, 7896 kPa, x1 = 0.8 | 299.2 ± 1.5 | –
523.15 K, 8097 kPa, x1 = 0.5 | 344.56 ± 1.7 | –
523.15 K, 8118 kPa, x1 = 0.9 | 312.33 ± 1.6 | –
523.15 K, 8453 kPa, x1 = 0.8 | 315.37 ± 1.6 | –
523.15 K, 8992 kPa, x1 = 0.9 | 334.04 ± 1.7 | –
523.15 K, 9070 kPa, x1 = 0.5 | 372.89 ± 1.9 | –
523.15 K, 9148 kPa, x1 = 0.8 | 333.86 ± 1.7 | –
523.15 K, 9669 kPa, x1 = 0.8 | 345.38 ± 1.7 | –
523.15 K, 10260 kPa, x1 = 0.9 | 354.13 ± 1.8 | –
523.15 K, 10494 kPa, x1 = 0.5 | 398.14 ± 2 | –
523.15 K, 10826 kPa, x1 = 0.8 | 361.95 ± 1.8 | –
523.15 K, 11137 kPa, x1 = 0.2 | 470.39 ± 2.4 | –
523.15 K, 12130 kPa, x1 = 0.5 | 417.24 ± 2.1 | –
523.15 K, 14557 kPa, x1 = 0.5 | 440.97 ± 2.2 | –
523.15 K, 15550 kPa, x1 = 0.9 | 407.31 ± 2 | –
523.15 K, 15764 kPa, x1 = 0.5 | 451.29 ± 2.3 | –
523.15 K, 16344 kPa, x1 = 0.8 | 418.23 ± 2.1 | –
523.15 K, 16569 kPa, x1 = 0.2 | 509.61 ± 2.6 | –
523.15 K, 19192 kPa, x1 = 0.5 | 468.18 ± 2.4 | –
523.15 K, 25897 kPa, x1 = 0.2 | 547.05 ± 2.8 | –
523.15 K, 26649 kPa, x1 = 0.8 | 466.73 ± 2.4 | –
523.15 K, 33702 kPa, x1 = 0.5 | 519.37 ± 2.6 | –
523.15 K, 36508 kPa, x1 = 0.8 | 496.15 ± 2.5 | –
523.15 K, 39812 kPa, x1 = 0.2 | 581.35 ± 2.9 | –
533.15 K, 1342 kPa, x1 = 0.8 | – | 22.51 ± 0.07
533.15 K, 1590 kPa, x1 = 0.2 | – | 24.92 ± 0.08
533.15 K, 2034 kPa, x1 = 0.8 | – | 36.67 ± 0.11
533.15 K, 2979 kPa, x1 = 0.8 | – | 58.39 ± 0.18
533.15 K, 3245 kPa, x1 = 0.2 | – | 52.98 ± 0.17
533.15 K, 3545 kPa, x1 = 0.8 | – | 73.76 ± 0.23
533.15 K, 3768 kPa, x1 = 0.9 | 83.34 ± 0.42 | –
533.15 K, 4255 kPa, x1 = 0.2 | – | 91.37 ± 0.29
533.15 K, 4552 kPa, x1 = 0.8 | 106.35 ± 0.54 | –
533.15 K, 4745 kPa, x1 = 0.2 | – | 114.3 ± 0.36
533.15 K, 4839 kPa, x1 = 0.9 | 123.29 ± 0.63 | –
533.15 K, 5078 kPa, x1 = 0.9 | 134.05 ± 0.68 | –
533.15 K, 5281 kPa, x1 = 0.2 | 150.27 ± 0.76 | –
533.15 K, 5454 kPa, x1 = 0.8 | 140.24 ± 0.71 | –
533.15 K, 5541 kPa, x1 = 0.2 | 175.53 ± 1 | –
533.15 K, 5638 kPa, x1 = 0.2 | 189.54 ± 1.1 | –
533.15 K, 5660 kPa, x1 = 0.9 | 163.88 ± 0.83 | –
533.15 K, 5720 kPa, x1 = 0.8 | 155.97 ± 0.8 | –
533.15 K, 5833 kPa, x1 = 0.2 | 219.99 ± 1.1 | –
533.15 K, 5973 kPa, x1 = 0.8 | 169.7 ± 0.87 | –
533.15 K, 5993 kPa, x1 = 0.2 | 245.35 ± 1.4 | –
533.15 K, 6071 kPa, x1 = 0.8 | 175.94 ± 0.89 | –
533.15 K, 6078 kPa, x1 = 0.2 | 259.07 ± 1.4 | –
533.15 K, 6109 kPa, x1 = 0.2 | 262.77 ± 1.4 | –
533.15 K, 6137 kPa, x1 = 0.9 | 189.36 ± 0.96 | –
533.15 K, 6162 kPa, x1 = 0.2 | 272.22 ± 1.5 | –
533.15 K, 6177 kPa, x1 = 0.8 | 180.74 ± 0.92 | –
533.15 K, 6285 kPa, x1 = 0.2 | 290.39 ± 1.5 | –
533.15 K, 6384 kPa, x1 = 0.8 | 193.07 ± 0.98 | –
533.15 K, 6395 kPa, x1 = 0.9 | 202.28 ± 1 | –
533.15 K, 6426 kPa, x1 = 0.2 | 306.67 ± 1.6 | –
533.15 K, 6463 kPa, x1 = 0.2 | 310.9 ± 1.6 | –
533.15 K, 6550 kPa, x1 = 0.2 | 318.61 ± 1.6 | –
533.15 K, 6727 kPa, x1 = 0.9 | 220.58 ± 1.1 | –
533.15 K, 6761 kPa, x1 = 0.8 | 213.75 ± 1.1 | –
533.15 K, 6844 kPa, x1 = 0.2 | 341.09 ± 1.7 | –
533.15 K, 6859 kPa, x1 = 0.8 | 219.51 ± 1.1 | –
533.15 K, 6879 kPa, x1 = 0.2 | 343.88 ± 1.7 | –
533.15 K, 6955 kPa, x1 = 0.9 | 232.95 ± 1.2 | –
533.15 K, 7014 kPa, x1 = 0.9 | 236.41 ± 1.2 | –
533.15 K, 7092 kPa, x1 = 0.9 | 240.81 ± 1.2 | –
533.15 K, 7159 kPa, x1 = 0.9 | 244.12 ± 1.2 | –
